The source of these data is ChEMBL document CHEMBL2046369, “Self-calibrating viscosity probes: design and subcellular localization” (Bioorg Med Chem, 2012).

The nature of data set [1]: Drug uptake in human T24 cell cytoplasm at 2 uM after 1 hr by Dil-C28 dye staining-based inverted microscopic analysis. It is filed as ADME. To be noted: t-24, 1 h.
Data set [2] can be described thus: Drug uptake in human T24 cell cytoskeleton at 2 uM after 1 hr by Dil-C28 dye staining-based inverted microscopic analysis. The class given is ADME. To be noted: t-24, 1 h.

Regarding `COc1ccc2cc(C(=O)NCCOCCOCCOC(=O)/C(C#N)=C/c3ccc(N4CCCCC4)s3)c(=O)oc2c1`, the Drug uptake entry in data set [1] is listed as “Active”.
For the compound `CCCCCCN(CCCCCC)c1ccc(/C=C(\C#N)C(=O)OCCCCCNC(=O)c2cc3ccc(OC)cc3oc2=O)s1`, in data set [2], the Drug uptake entry is “Active”.
